Earlier results on one molecule are cited in US20030199496A1, “Pharmaceutical compositions containing alpha3beta4 nicotinic receptor antagonists and methods of their use” (priority 2002, published 2003).

The data set has as its system Purkinje nerve cells.

In the case of `COCC[C@H]1CC2CN3CCc4c([nH]c5ccccc45)[C@](C(=O)OC)(C2)[C@H]13` [18-MC, 18-methoxycoronaridine], the “neurotoxicity, especially on Purkinje nerve cells” value (at certain doses) is listed as “devoid of these undesirable characteristics”. Moreover, the tremors entry (human and animal subjects) is recorded as “devoid of these undesirable characteristics”.
